Patent US20140051722A1, “TOPICAL LFA-1 ANTAGONISTS FOR USE IN LOCALIZED TREATMENT OF IMMUNE RELATED DISORDERS” (SARCODE BIOSCIENCE INC., priority 2008, published 2014)

Assays:
IL-3 = test: SEB-stimulated cytokine release from human PBMC: IL-3; assay type: cell-based; settings: SEB 1 ng/ml
IL-1β = test: SEB-stimulated cytokine release from human PBMC: IL-1β; assay type: cell-based; settings: SEB 1 ng/ml
IL-10 = test: SEB-stimulated cytokine release from human PBMC: IL-10; assay type: cell-based; settings: SEB 1 ng/ml
IL-12p40 = test: SEB-stimulated cytokine release from human PBMC: IL-12p40; assay type: cell-based; settings: SEB 1 ng/ml
MCP-1 = test: SEB-stimulated cytokine release from human PBMC: MCP-1; assay type: cell-based; settings: SEB 1 ng/ml
IL-1α = test: SEB-stimulated cytokine release from human PBMC: IL-1α; assay type: cell-based; settings: SEB 1 ng/ml
GM-CSF = test: SEB-stimulated cytokine release from human PBMC: GM-CSF; assay type: cell-based; settings: SEB 1 ng/ml
IP-10 = test: SEB-stimulated cytokine release from human PBMC: IP-10; assay type: cell-based; settings: SEB 1 ng/ml
IL-13 = test: SEB-stimulated cytokine release from human PBMC: IL-13; assay type: cell-based; settings: SEB 1 ng/ml
IL-4 = test: SEB-stimulated cytokine release from human PBMC: IL-4; assay type: cell-based; settings: SEB 1 ng/ml
IL-5 = test: SEB-stimulated cytokine release from human PBMC: IL-5; assay type: cell-based; settings: SEB 1 ng/ml
IL-6 = test: SEB-stimulated cytokine release from human PBMC: IL-6; assay type: cell-based; settings: SEB 1 ng/ml
[1] = test system: Plaque Psoriasis (PASI score); settings: >90% occupancy of LFA-1; cited from earlier work

Compound	EC50 (IL-3)	EC50 (IL-1β)	EC50 (IL-10)	EC50 (IL-12p40)	EC50 (MCP-1)	EC50 (IL-1α)	EC50 (GM-CSF)	EC50 (IP-10)	EC50 (IL-13)	EC50 (IL-4)	EC50 (IL-5)	EC50 (IL-6)	clinical improvement in PASI score [1]
O=C(NC(Cc1cc(=O)[nH]c2ccccc12)C(=O)O)c1ccc(Cl)cc1 (stereo not shown) [Rebamipide]	> 1000 µM	> 1000 µM	> 1000 µM	> 1000 µM	> 1000 µM	> 1000 µM	> 1000 µM	> 1000 µM	> 1000 µM	> 1000 µM	> 1000 µM	> 1000 µM	
efalizumab: anti-LFA-1 monoclonal antibody, clinical trial in plaque psoriasis													greater than 50%
